# pIC50: −log10 of the molar value.
# Target: T1, ATM (Homo sapiens, UniProt Q13315)
# T1 construct: detecting phosphorylation of Chk2 in a human non-small cell lung cancer cell line NCI-H460 (ATCC company); host or cells: NCI-H460 human non-small cell lung cancer cells
# Assay: ATM inhibition test (phosphorylation of Chk2 generated by ionizing radiation, AlphaScreen SureFire)
# Assay type: cell-based
# Details: phosphorylated Chk2 in NCI-H460 cells, ionizing radiation 8Gy, 1 hour after test compound treatment; read-out: ATM inhibitory activity
# Outline: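 Human NCI-H460 lung cancer cells were treated with compound for 1 h, then irradiated at 8Gy and incubated 1 h at 37° C. Phospho-Chk2 was quantified by AlphaScreen SureFire; inhibition % was normalised between irradiated untreated and non-irradiated untreated wells.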
# T1 sequence (Q13315 whole entry): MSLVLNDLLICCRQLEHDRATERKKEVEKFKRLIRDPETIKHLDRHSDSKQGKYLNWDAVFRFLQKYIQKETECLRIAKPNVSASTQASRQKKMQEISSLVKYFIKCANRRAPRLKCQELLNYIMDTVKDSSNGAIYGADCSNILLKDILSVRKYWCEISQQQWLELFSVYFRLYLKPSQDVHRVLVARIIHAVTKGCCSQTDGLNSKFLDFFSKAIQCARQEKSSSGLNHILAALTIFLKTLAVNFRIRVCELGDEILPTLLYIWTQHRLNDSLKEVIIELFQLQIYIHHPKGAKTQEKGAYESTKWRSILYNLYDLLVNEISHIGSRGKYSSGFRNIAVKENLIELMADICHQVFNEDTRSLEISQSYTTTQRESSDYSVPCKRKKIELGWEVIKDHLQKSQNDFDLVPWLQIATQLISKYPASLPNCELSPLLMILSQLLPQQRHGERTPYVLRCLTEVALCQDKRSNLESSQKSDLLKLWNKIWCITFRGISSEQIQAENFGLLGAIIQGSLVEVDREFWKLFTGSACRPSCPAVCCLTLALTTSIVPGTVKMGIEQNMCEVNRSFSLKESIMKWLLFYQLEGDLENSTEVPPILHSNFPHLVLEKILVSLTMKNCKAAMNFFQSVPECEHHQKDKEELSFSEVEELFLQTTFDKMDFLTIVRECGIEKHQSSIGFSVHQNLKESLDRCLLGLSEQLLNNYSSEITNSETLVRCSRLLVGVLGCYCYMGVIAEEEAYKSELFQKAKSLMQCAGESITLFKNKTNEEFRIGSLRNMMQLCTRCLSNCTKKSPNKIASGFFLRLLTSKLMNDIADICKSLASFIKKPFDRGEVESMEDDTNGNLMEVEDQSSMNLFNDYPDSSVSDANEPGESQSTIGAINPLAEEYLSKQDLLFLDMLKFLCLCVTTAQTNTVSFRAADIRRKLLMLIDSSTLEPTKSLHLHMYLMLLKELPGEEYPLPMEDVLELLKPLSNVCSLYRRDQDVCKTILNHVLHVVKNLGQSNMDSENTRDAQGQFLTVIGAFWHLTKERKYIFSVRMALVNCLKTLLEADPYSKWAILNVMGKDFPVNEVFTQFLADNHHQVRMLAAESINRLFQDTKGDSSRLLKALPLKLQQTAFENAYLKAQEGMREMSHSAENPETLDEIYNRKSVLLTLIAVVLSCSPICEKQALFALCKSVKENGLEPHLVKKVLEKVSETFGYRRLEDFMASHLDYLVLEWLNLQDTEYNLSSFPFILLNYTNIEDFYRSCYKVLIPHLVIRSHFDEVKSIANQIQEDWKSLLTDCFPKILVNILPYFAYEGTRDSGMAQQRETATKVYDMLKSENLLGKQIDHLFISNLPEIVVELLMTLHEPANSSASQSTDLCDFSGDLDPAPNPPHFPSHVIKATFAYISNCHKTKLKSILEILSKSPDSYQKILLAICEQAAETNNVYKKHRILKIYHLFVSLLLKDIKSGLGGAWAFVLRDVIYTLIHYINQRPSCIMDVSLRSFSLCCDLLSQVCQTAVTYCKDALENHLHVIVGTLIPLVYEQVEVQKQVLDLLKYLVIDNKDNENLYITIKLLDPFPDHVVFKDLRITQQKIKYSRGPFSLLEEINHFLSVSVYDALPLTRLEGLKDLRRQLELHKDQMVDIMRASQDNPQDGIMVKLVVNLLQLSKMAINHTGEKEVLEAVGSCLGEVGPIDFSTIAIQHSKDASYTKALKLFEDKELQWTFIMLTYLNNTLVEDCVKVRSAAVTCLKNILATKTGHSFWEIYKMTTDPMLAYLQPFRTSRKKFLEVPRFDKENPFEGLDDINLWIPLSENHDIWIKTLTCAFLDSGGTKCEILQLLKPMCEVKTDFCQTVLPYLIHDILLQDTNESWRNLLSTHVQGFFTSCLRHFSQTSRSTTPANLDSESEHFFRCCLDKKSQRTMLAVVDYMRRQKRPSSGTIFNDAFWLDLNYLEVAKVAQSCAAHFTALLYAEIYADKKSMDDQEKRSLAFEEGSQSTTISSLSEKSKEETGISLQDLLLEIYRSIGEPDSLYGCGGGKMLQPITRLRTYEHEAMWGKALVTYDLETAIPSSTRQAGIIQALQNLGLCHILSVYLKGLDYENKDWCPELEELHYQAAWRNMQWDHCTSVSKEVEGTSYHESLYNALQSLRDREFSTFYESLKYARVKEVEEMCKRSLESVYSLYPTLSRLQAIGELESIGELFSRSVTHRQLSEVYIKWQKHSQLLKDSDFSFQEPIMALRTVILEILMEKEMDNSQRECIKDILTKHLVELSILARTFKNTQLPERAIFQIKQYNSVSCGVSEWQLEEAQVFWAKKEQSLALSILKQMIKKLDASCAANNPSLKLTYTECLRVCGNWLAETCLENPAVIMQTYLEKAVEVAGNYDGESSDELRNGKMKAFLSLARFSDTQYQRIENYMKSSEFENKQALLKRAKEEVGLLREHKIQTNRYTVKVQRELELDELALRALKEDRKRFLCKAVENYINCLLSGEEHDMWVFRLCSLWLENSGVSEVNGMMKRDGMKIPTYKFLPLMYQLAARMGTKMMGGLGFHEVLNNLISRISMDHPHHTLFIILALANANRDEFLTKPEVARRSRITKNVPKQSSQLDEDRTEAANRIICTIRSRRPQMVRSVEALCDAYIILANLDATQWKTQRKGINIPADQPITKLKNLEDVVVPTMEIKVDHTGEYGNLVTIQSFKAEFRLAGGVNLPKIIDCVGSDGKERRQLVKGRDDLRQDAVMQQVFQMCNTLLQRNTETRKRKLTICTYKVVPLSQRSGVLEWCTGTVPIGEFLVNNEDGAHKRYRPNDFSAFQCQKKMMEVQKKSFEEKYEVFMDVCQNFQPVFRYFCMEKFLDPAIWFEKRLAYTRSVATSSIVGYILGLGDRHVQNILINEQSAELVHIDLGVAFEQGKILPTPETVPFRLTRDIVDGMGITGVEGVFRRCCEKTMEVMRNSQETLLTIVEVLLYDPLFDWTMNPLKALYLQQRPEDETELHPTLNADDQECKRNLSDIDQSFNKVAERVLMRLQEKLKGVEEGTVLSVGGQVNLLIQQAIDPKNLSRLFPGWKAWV
row,pIC50,SMILES
1,6.30 to 7.00,"COc1ccnc(C(C)Nc2ccc3c(c2)Cc2cccc(-c4cc(N5CCOCC5)cc(=O)[nH]4)c2O3)c1 (single isomer, unassigned) [Example 2-14-86-1, 6-(7-((1-(4-methoxypyridin-2-yl)ethyl)amino)-9H-xanthen-4-yl)-4-morpholinopyridin-2(1H)-one]"
2,6.30 to 7.00,"CC(C)(C)OC(=O)N1CCC(Nc2ccc3c(c2)Cc2cccc(-c4cc(N5CCOCC5)cc(=O)[nH]4)c2O3)C(F)C1 (centres unmarked) [Example 2-14-1, tert-Butyl 3-fluoro-4-((5-(4-morpholino-6-oxo-1,6-dihydropyridin-2-yl)-9H-xanthen-2-yl)amino) piperidine-1-carboxylate]"
3,5.70 to 6.30,"O=c1cc(N2CCOCC2)cc(-c2cccc3c2Oc2ccc(Nc4cccnc4)cc2C3)[nH]1 [Example 2-61, 4-Morpholino-6-(7-(pyridin-3-ylamino)-9H-xanthen-4-yl)pyridin-2(1H)-one]"
4,6.30 to 7.00,"Cc1cccc(C(Nc2ccc3c(c2)Sc2cccc(-c4cc(N5CCOCC5)cc(=O)[nH]4)c2S3)C2CCNC2)n1 (centres unmarked) [Example 1-20-14, 6-(7-(((6-Methylpyridin-2-yl)(pyrrolidin-3-yl)methyl)amino)thianthren-1-yl)-4-morpholino pyridin-2(1H)-one]"
5,5.70 to 6.30,"O=c1cc(N2CCOCC2)cc(-c2cccc3c2Oc2ccc(NC4CCOC4)cc2C3)[nH]1 (centres unmarked) [Example 2-16, 4-Morpholino-6-(7-((tetrahydrofuran-3-yl)amino)-9H-xanthen-4-yl)pyridin-2(1H)-one]"
6,6.30 to 7.00,"O=c1cc(N2CCOCC2)cc(-c2nccc3c2Oc2ccc(NCc4cccc(Cl)n4)cc2C3)[nH]1 [Example 2-41-8, 6-(7-(((6-Chloropyridin-2-yl)methlyl)anlino)-5H-chromeno [2,3-c]pyridin-1-yl)-4-morpholino pyridin-2(1H)-one]"
7,6.30 to 7.00,"CC(Nc1ccc2c(c1)Cc1cccc(-c3cc(N4CCOCC4)cc(=O)[nH]3)c1O2)c1cnccn1 (centres unmarked) [Example 2-14-77, 4-Morpholino-6-(7-((1-(pyrazin-2-yl)ethyl)amino)-9H-xanthen-4-yl)pyridin-2 (1H)-one]"
8,6.30 to 7.00,"COc1ncc(CNc2ccc3c(c2)Sc2cccc(-c4cc(N5CCOCC5)cc(=O)[nH]4)c2S3)cn1 [Example 1-12-10, 6-(7-(((2-Methoxypyrimidin-5-yl)methyl)amino)thianthren-1-yl)-4-morpholino pyridin-2(1H)-one]"
9,6.30 to 7.00,"COCCNCCC(Nc1ccc2c(c1)Sc1cccc(-c3cc(N4CCOCC4)cc(=O)[nH]3)c1S2)c1cccc(C)n1 (centres unmarked) [Example 1-20-10, 6-(7-((3-((2-Methoxyethyl)amino)-1-(6-methylpyridin-2-yl)propyl)amino)thianthren-1-yl)-4-morpholino pyridin-2 (1H)-one]"
10,> 7.00,"Cc1ccc(C(CCN2CCCCC2)Nc2ccc3c(c2)Sc2cccc(-c4cc(N5CCOCC5)cc(=O)[nH]4)c2S3)nc1 (single isomer, unassigned) [Example 1-51-6, 6-(7-((1-(5-Methylpyridin-2-yl)-3-(piperidin-1-yl)propyl)amino)thianthren-1-yl)-4-morpholino pyridin-2(1H)-one]"
11,6.30 to 7.00,"CCN(CC)CC(Nc1ccc2c(c1)Sc1cccc(-c3cc(N4CCOCC4)cc(=O)[nH]3)c1S2)c1ncc(C)cn1 (centres unmarked) [Example 1-12-106, 6-(7-((2-(Diethylamino)-1-(5-methylpyrimidin-2-yl)ethyl)amino)thianthren-1-yl)-4-morpholino pyridin-2(1H)-one]"
12,6.30 to 7.00,"Cc1ccc(CNc2ccc3c(c2)Cc2ccnc(-c4cc(N5CCOCC5)cc(=O)[nH]4)c2O3)cn1 [Example 2-42-4, 6-(7-(((6-Methylpyridin-3-yl)methyl)amino)-5H-chromeno[2,3-c]pyridin-1-yl)-4-morpholinopyridin-2(1H)-one]"
13,5.70 to 6.30,"O=c1cc(N2CCOCC2)cc(-c2cccc3c2Oc2ccc(NC4CCN(Cc5cnccn5)CC4)cc2C3)[nH]1 [Example 2-28-7, 4-Morpholino-6-(7-((1-(pyrazin-2-ylmethyl)piperidin-4-yl)amino)-9H-xanthen-4-yl)pyridin-2 (1H)-one]"
14,5.70 to 6.30,"CNCC(Nc1ccc2c(c1)Sc1cccc(-c3cc(N4CCOCC4)cc(=O)[nH]3)c1S2)c1cccc(C)n1 (single isomer, unassigned) [Example 1-19-4-2, 6-(7-((2-(Methylamino)-1-(6-methylpyridin-2-yl)ethyl)amino)thianthren-1-yl)-4-morpholinopyridin-2(1H)-one]"
15,6.30 to 7.00,"CC(CN1CCOCC1)Nc1ccc2c(c1)Sc1cccc(-c3cc(N4CCOCC4)cc(=O)[nH]3)c1S2 (single isomer, unassigned) [Example 1-13-2-3, 4-morpholino-6-(7-((1-morpholinopropan-2-yl)amino)thianthren-1-yl)pyridin-2(1H)-one]"
16,6.30 to 7.00,"O=c1cc(N2CCOCC2)cc(-c2cc(F)cc3c2Oc2ccc(NCc4cccc(Cl)n4)cc2C3)[nH]1 [Example 2-48-2, 6-(7-(((6-Chloropyridin-2-yl)methyl)amino)-2-fluoro-9H-xanthen-4-yl)-4-morpholinopyridin-2(1H)-one]"

row,pIC50,SMILES
1,6.30 to 7.00,"Cc1cccc(C(CN)Nc2ccc3c(c2)Cc2cccc(-c4cc(N5CCOCC5)cc(=O)[nH]4)c2O3)n1 (centres unmarked) [Example 2-18, 6-(7-((2-Amino-1-(6-methylpyridin-2-yl)ethyl)amino)-9H-xanthen-4-yl)-4-morpholinopyridin-2(1H)-one]"
2,6.30 to 7.00,"CCCC(Nc1ccc2c(c1)Sc1cccc(-c3cc(N4CCOCC4)cc(=O)[nH]3)c1S2)[C@H](C)N (stereo partly drawn) [Example 1-20-2, 6-(7-(((2S)-2-Aminohexan-3-yl)amino)thianthren-1-yl)-4-morpholino pyridin-2(1H)-one]"
3,6.30 to 7.00,"O=c1cc(N2CCOCC2)cc(-c2cccc3c2Oc2ccc(NCCc4cccnc4)cc2C3)[nH]1 [Example 2-12, 4-morpholino-6-(7-((2-(pyridin-3-yl)ethyl)amino)-9H-xanthen-4-yl)pyridin-2(1H)-one]"
4,6.30 to 7.00,"CN(C)c1ccc(CN2CCC(Nc3ccc4c(c3)Cc3cccc(-c5cc(N6CCOCC6)cc(=O)[nH]5)c3O4)CC2)cn1 [Example 2-28-9, 6-(7-((1-((6-(Dimethylamino)pyridin-3-yl)methyl)piperidin-4-yl)amino)-9H-xanthen-4-yl)-4-morpholino pyridin-2(1H)-one]"
5,6.30 to 7.00,"CNc1cncc(CNc2ccc3c(c2)Cc2cccc(-c4cc(N5CCOCC5)cc(=O)[nH]4)c2O3)c1 [Example 2-21-4, 6-(7-(((5-(Methylamino)pyridin-3-yl)methyl)amino)-9H-xanthen-4-yl)-4-morpholino pyridin-2(1H)-one]"
6,6.30 to 7.00,"O=c1cc(N2CCOCC2)cc(-c2cccc3c2Oc2ccc(NCc4cncc(Cl)c4)cc2S3)[nH]1 [Example 4-8-6, 6-(8-(((5-Chloropyridin-3-yl)methyl)amino)phenoxathiin-4-yl)-4-morpholino pyridin-2(1H)-one]"
7,6.30 to 7.00,"COc1cccnc1CNc1ccc2c(c1)Cc1cccc(-c3cc(N4CCOCC4)cc(=O)[nH]3)c1O2 [Example 2-14-8, 6-(7-(((3-Methoxypyridin-2-yl)methyl)amino)-9H-xanthen-4-yl)-4-morpholino pyridin-2(1H)-one]"
8,6.30 to 7.00,"O=C1CCN1c1cncc(CNc2ccc3c(c2)Sc2cccc(-c4cc(N5CCOCC5)cc(=O)[nH]4)c2O3)c1 [Example 4-8-16, 4-Morpholino-6-(8-(((5-(2-oxoazetidin-1-yl)pyridin-3-yl)methyl)amino)phenoxathiin-4-yl)pyridin-2 (IH)-one]"
9,6.30 to 7.00,"O=C(CN1CCOCC1)Nc1ccc2c(c1)Sc1cccc(-c3cc(N4CCOCC4)cc(=O)[nH]3)c1S2 [Example 1-7-4, 2-Morpholino-N-(6-(4-morpholino-6-oxo-1,6-dihydropyridin-2-yl)thianthren-2-yl)acetamide]"
10,6.30 to 7.00,"CC(CN1CCN(Cc2ccccn2)CC1)Nc1ccc2c(c1)Sc1cccc(-c3cc(N4CCOCC4)cc(=O)[nH]3)c1S2 (centres unmarked) [Example 1-15-2, 4-Morpholino-6-(7-((1-(4-(pyridin-2-ylmethyl)piperazin-1-yl)propan-2-yl)amino)thianthren-1-yl)pyridin-2(1H)-one]"
11,6.30 to 7.00,"COc1cncc(CNc2ccc3c(c2)Cc2ccnc(-c4cc(N5CCOCC5)cc(=O)[nH]4)c2O3)c1 [Example 2-41-1, 6-(7-(((5-Methoxypyridin-3-yl)methyl)amino)-5H-chromeno[2,3-c]pyridin-1-yl)-4-morpholinopyridin-2(1H)-one]"
12,6.30 to 7.00,"Cc1ccc(C(CC2CC2)Nc2ccc3c(c2)Sc2cccc(-c4cc(N5CCOCC5)cc(=O)[nH]4)c2S3)nc1 (centres unmarked) [Example 1-12-128, 6-(7-((2-Cyclopropyl-1-(5-methylpyridin-2-yl)ethyl)amino)thianthren-1-yl)-4-morpholino pyridin-2(1H)-one]"
13,6.30 to 7.00,"CCOc1ccnc(CN2CCC(Nc3ccc4c(c3)Cc3cccc(-c5cc(N6CCOCC6)cc(=O)[nH]5)c3O4)CC2)c1 [Example 2-28-36, 6-(7-((1-((4-Ethoxypyridin-2-yl)methyl)piperidin-4-yl)amino)-9H-xanthen-4-yl)-4-morpholino pyridin-2(1H)-one]"
14,6.30 to 7.00,"CC(CNc1ccc2c(c1)Sc1cccc(-c3cc(N4CCOCC4)cc(=O)[nH]3)c1S2)N1CCOCC1 (single isomer, unassigned) [Example 1-9-2-2, 4-morpholino-6-(7-((2-morpholinopropyl)amino)thianthren-1-yl)pyridin-2(1H)-one]"
15,6.30 to 7.00,"O=c1cc(N2CCOCC2)cc(-c2cccc3c2Sc2ccc(NC4CN(Cc5cccnc5)C4)cc2S3)[nH]1 [Example 1-24-21, 4-Morpholino-6-(7-((1-(pyridin-3-ylmethyl)azetidin-3-yl)amino)thianthren-1-yl)pyridin-2(1H)-one]"
16,6.30 to 7.00,"Cc1cc(C)nc(CNc2ccc3c(c2)Cc2cccc(-c4cc(N5CCOCC5)cc(=O)[nH]4)c2O3)c1 [Example 2-14-15, 6-(7-(((4,6-Dimethylpyridin-2-yl)methyl)amino)-9H-xanthen-4-yl)-4-morpholino pyridin-2 (1H)-one]"
